Assays:
[1] = Solid stability test of crystal form A (influencing factors and accelerated conditions; HPLC purity and XRPD); type: physicochemical
Protocol: All the stability samples were subjected to XRPD detection to detect changes in crystal forms.
About 10 mg of the crystal form was accurately weighed, put in a dry and clean glass bottle, spread into a thin layer, covered with aluminum foil with small pierced holes, and put under conditions of the influencing factor test and accelerated conditions. A sample under sunlight conditions (1200000 Lux visible light, and 200 W ultraviolet light) was put in a transparent glass bottle and fully exposed, and a sample used for XRPD detection was put separately.
After the sample was taken out by a time point, the glass bottle was covered with a lid, sealed with parafilm, and stored in a refrigerator at −20° C. During sample preparation, the sample was taken out of the refrigerator and recovered to room temperature, 10 mL of 80% ACN was added, and the sample was dissolved by ultrasonication for 2 minutes to obtain a solution at a concentration of about 1 mg/mL. A liquid phase was used for sample analysis, and the test result was compared with an initial test result on Day 0.
Preparation of a standard solution on Day 0: About 10 mg of the crystal form was weighed, put into a 10 mL volumetric flask, dissolved in 80% acetonitrile and diluted to the scale.
In addition, all the stability samples were subjected to the HPLC tests.

[2] = target: KDR (VEGFR-2) protein kinase (Homo sapiens (Human), UniProt P35968); experiment: In vitro evaluation of inhibitory activity against KDR (VEGFR-2) protein kinase (ADP-Glo kinase assay); type: biochemical
Text: The KDR Kinase Kit was designed to use Kinase-Glo® MAX as a teat reagent to measure KDR kinase activity, and the IC50 value of the compound was used as an indicator for compound screening and analysis.
ADP-GLO™ Kinase Assay is an assay reaction for measuring adenosine diphosphate formed by the kinase by using a luminescent kinase; and ADP was converted into ATP, that is, conversion into a light signal via Ultra-Glo™ Luciferase. The light signal was positively correlated with the quantity of ADP and kinase activity. Such assay was very suitable for determining the activity of the compound, making the assay ideal for primary screening and a kinase selectivity assay. The ADP-Glo™ Kinase Assay can be used to monitor the activity of almost all ADP-producing enzymes (for example, a kinase or ATPase): • 1) Enzyme, substrate, ATP and inhibitors were diluted in kinase buffer; • 2) 384-well plate: 1 μL of inhibitor or (5% dimethyl sulfoxide solution) 2 μL of KDR enzyme, and 2 μL of substrate/ATP mixture; • 3) The 384-well plate was incubated at room temperature for 60 minutes; • 4) 5 μL of ADP-GLO™ reagent was added; • 5) The 384-well plate was incubated at room temperature for 40 minutes; • 6) 10 μL of kinase test reagent was added; • 7) The 384-well plate was incubated at room temperature for 30 minutes; • 8) Lumination (integration time: 0.5 to 1 second) was recorded. […]

[3] = 40° C., relative humidity 75%, opened, 1 months
[4] = 40° C., relative humidity 75%, opened, 2 months
[5] = 40° C., relative humidity 75%, opened, 3 months
[6] = 60° C., relative humidity 75%, opened, 1 month
[7] = 60° C., relative humidity 75%, opened, 2 months
[8] = Control group kept in the dark, wrapped with tin foil
[9] = High humidity (relative humidity 92.5%, opened), 1 week
[10] = High humidity (relative humidity 92.5%, opened), 2 week
[11] = High temperature (60° C., opened), 1 week
[12] = High temperature (60° C., opened), 2 week
[13] = Visible light + ultraviolet light (ICH condition), visible 1200000 lux·hrs

Chain of KDR (VEGFR-2) protein kinase (P35968 20-1356): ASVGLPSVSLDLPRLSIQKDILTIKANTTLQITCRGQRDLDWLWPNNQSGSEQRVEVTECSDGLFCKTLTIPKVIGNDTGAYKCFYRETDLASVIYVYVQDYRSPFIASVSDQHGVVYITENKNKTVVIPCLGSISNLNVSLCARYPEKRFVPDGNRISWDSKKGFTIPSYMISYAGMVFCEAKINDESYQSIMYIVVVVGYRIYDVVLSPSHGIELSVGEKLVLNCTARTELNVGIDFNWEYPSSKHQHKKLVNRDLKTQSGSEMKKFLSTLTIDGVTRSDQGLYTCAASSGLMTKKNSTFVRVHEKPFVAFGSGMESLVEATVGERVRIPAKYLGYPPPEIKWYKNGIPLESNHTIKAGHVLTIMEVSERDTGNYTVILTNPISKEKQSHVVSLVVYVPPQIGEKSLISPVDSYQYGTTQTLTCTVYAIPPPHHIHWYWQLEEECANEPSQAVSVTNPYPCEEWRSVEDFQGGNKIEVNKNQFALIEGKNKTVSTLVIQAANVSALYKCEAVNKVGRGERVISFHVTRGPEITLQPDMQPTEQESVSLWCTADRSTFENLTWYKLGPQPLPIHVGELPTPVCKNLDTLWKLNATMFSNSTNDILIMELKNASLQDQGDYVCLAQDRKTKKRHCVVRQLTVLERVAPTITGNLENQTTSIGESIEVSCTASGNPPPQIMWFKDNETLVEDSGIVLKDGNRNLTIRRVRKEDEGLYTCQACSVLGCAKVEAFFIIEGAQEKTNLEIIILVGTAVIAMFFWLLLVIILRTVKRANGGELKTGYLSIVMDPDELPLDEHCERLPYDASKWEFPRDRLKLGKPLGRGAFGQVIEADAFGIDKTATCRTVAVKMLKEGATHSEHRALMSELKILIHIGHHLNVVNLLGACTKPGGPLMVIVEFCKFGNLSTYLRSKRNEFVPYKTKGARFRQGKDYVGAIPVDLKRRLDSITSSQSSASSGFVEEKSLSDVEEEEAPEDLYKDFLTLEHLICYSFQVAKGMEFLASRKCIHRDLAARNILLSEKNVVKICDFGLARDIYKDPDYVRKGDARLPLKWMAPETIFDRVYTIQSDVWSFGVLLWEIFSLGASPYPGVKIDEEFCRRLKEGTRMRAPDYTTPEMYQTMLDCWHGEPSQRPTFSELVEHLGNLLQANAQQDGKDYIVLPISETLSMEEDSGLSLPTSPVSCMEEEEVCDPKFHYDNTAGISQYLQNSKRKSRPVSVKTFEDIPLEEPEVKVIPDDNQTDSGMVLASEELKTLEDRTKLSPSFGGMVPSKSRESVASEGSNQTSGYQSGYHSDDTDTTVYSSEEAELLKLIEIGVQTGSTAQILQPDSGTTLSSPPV

In the case of `c1cn2c(n1)c(Nc1ccc(N3CCOCC3)cc1)nc1ccc(-c3cn[nH]c3)cc12`, the “Crystal form (XRPD)” value [1, 3] is reported as “Crystal form A”, the “Purity (area %)” value [1, 3] is reported as 99.12 area % and the “Crystal form (XRPD)” value [1, 4] is reported as “Crystal form A”. For the same compound, the “Purity (area %)” value [1, 4] was 99.06 area %, the “Crystal form (XRPD)” value [1, 5] was “Crystal form A” and the “Purity (area %)” value [1, 5] was 99.04 area %. For the same compound, the “Crystal form (XRPD)” value [1, 6] was “Crystal form A”, the “Purity (area %)” value [1, 6] was 99.15 area % and the “Crystal form (XRPD)” value [1, 7] was “Crystal form A”. The “Purity (area %)” value [1, 7] was 99.03 area %, the “Crystal form (XRPD)” value [1, 8] was “Crystal form A” and the “Purity (area %)” value [1, 8] was 99.12 area %. The “Crystal form (XRPD)” value ([1]; Day 0) was “Crystal form A”, the “Purity (area %)” value ([1]; Day 0) was 99.05 area % and the “Crystal form (XRPD)” value [1, 9] was “Crystal form A”. The “Purity (area %)” value [1, 9] was 99.03 area %, the “Crystal form (XRPD)” value [1, 10] was “Crystal form A” and the “Purity (area %)” value [1, 10] was 99.11 area %. For the same compound, the “Crystal form (XRPD)” value [1, 11] was “Crystal form A”, the “Purity (area %)” value [1, 11] was 98.99 area % and the “Crystal form (XRPD)” value [1, 12] was “Crystal form A”. The “Purity (area %)” value [1, 12] was 99.10 area %, the “Crystal form (XRPD)” value [1, 13] was “Crystal form A” and the “Purity (area %)” value [1, 13] was 99.12 area %. For the same compound, the “change in purity and crystal form” value ([1]; all stability conditions (high temperature, high humidity and sunlight)) was “no significant change”, the chemical stability ([1]; conclusion in words) was “good chemical stability” and the IC50 [2] was 28 nM. The “inhibitory activity against KDR (VEGFR-2)” value ([2]; conclusion in words) was “good inhibitory activity”.

Reference: patent US20240132503A1, “SALT FORM AND CRYSTAL FORM OF PYRAZOLE SUBSTITUTED IMIDAZO[1,2- A]QUINOXALINE DERIVATIVE” (OCUMENSION THERAPEUTICS (SUZHOU) CO., LTD, priority 2021, published 2024)
